Data as given in patent US4918193A, “Methods for preparing 3-[N-phenyl-acetylaminopiperidine]-2,6-dion” (priority 1989, dated 1990).
“Also recorded” adds a separate entry of the source. Where a name gives a salt, the structure may show the parent alone. Read-outs that look alike come from different tables or passages of the source.

What was measured:
Rd/3 sarcoma = settings: rats, Neish, Experientia, 27: 860 (1971), cited from earlier work
[1] = Acute toxicity in mice, intraperitoneal injection
[2] = test system: human neoplastic diseases; test: Treatment of various human neoplastic diseases (general clinical statement); type: in vivo
Procedure: Various human neoplastic diseases were treated with 3-[N-phenylacetylaminopiperidine]-2,6-dion or its degradation products.

[3] = test system: advanced neoplastic diseases; test: Phase I clinical studies, 500 mg capsules (Example 1); type: in vivo, human; settings: 500 mg capsules daily
Procedure: The phase I clinical studies with 3-[N-phenylacetylaminopiperidine]-2,6-dion 500 mg capsules involved 42 patients diagnosed with 49 types of advanced neoplastic diseases. The formulation was administered daily for from 6 to 314 days. The highest dosage taken was 288.4 mg/kg/24 hours. […] Positive clinical response was obtained in 75% of 49 treated cases.

[4] = Hydrolysis of the sodium salt upon standing; type: physicochemical
Procedure: Five thousand grams of 3-[N-phenylacetylaminopiperidine]-2,6-dion was pulverized in a grinder, then suspended in 44 liters of pyrogen-free water. Concentrated sodium hydroxide in pyrogen-free water was added stepwise and stirred until all the powder was dissolved. The pH of the mixture was 7.0. Activated charcoal (U.S.P.) was added and stirred for 45 minutes, and then filtered. The concentration of the filtrate was adjusted to 103 mg/ml with pyrogen free water. The filtrate was then processed according to standard U.S.P. procedure for large volume injections of single dose infusions.

O=C(O)Cc1ccccc1 [sodium salt of phenylacetic acid]
effect on tumor growth, Rd/3 sarcoma (Rd/3 sarcoma): failed to inhibit tumor growth | effect on tumor growth, Rd/3 sarcoma (Rd/3 sarcoma; listed as phenylacetic acid): some enhancement of tumor growth

O=C1CCC(NC(=O)Cc2ccccc2)C(=O)N1 (stereo not shown) [3-[N-phenylacetylaminopiperidine]-2,6-dion]
autopsy and microscopic findings in animals which died ([1]; HA/ICR swiss mice, intraperitoneal): congestion of the liver and marked pulmonary edema | acute toxicity, overall ([1]; experimental animals): very low toxicity | observation of surviving animals ([1]; kept one week under close observation): normal activity | autopsy and microscopic examination of tissues of surviving animals ([1]; sacrificed after a week, versus control uninjected subjects): identical to those of control, uninjected subjects | usefulness / effectiveness in the treatment of human cancers ([2]; Applicant's clinical studies): effective to some extent in aiding the regression of tumors | regression of tumors associated with named human cancers ([2]; cancer of esophagus, breast, bladder, colon, lung, prostate, pancreas, uterine cervix, brain, bone and lung metastases, lymphatic lymphoma): with success in the regression of tumors | best clinical effects observed in [3]: chronic myelocytic leukemia and chronic lymphocytic leukemia, adenocarcinoma of the prostate, carcinoma of the breast and glioma | desirable side effects [3]: decrease of plasma levels of triglycerides and cholesterol; also recorded: increase of white blood cell count, red blood cell count and platelet count; also recorded: improvement of blood clotting | adverse reactions ([3]; highest dosage 288.4 mg/kg/24 hours): minimal adverse reactions, including excessive gas, gastrointestinal bleeding (most likely not related to 3-[N-phenylacetylaminopiperidine]-2,6-dion but to primary disease), moderately increased blood pressure, skin rash, vertigo, hypokalemia, hypoglycemia and mild myelosuppression | Positive clinical response ([3]; of 49 treated cases, 6 to 314 days): 75%

O=C1CCC(NC(=O)Cc2ccccc2)C(=O)N1 (stereo not shown) [3-[N-phenylacetylaminopiperidine]2,6-dion sodium salt]
basic hydrolysis upon standing [4]: undergoes basic hydrolysis to form the sodium salts of phenylacetyl glutamine and phenylacetyl isoglutamine
